Measured values from PubChem BioAssay (NCI).
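Cells were grown in 96-well plates and exposed to each compound for 48 hours at five concentrations; endpoints were interpolated linearly between bracketing concentrations, or set to the highest concentration if not reached. At the GI50, growth is halved. TGI marks complete inhibition of growth.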

Experiments:
Assay in all cases: growth of human tumour cells (NCI), 48 h; in the data active = GI50 below about 0.43 µM; inactive = the rest
786-0 renal = system: 786-0 renal
A498 renal = system: A498 renal
A549 NSCLC = system: A549 NSCLC
ACHN renal = system: ACHN renal
BT-549 breast = system: BT-549 breast
CAKI-1 renal = system: CAKI-1 renal
CCRF-CEM leukemia = system: CCRF-CEM leukemia
COLO 205 colon = system: COLO 205 colon
DU-145 prostate = system: DU-145 prostate
EKVX NSCLC = system: EKVX NSCLC
HCC-2998 colon = system: HCC-2998 colon
HCT-116 colon = system: HCT-116 colon
HCT-15 colon = system: HCT-15 colon
HL-60(TB) leukemia = system: HL-60(TB) leukemia
HOP-62 NSCLC = system: HOP-62 NSCLC
HOP-92 NSCLC = system: HOP-92 NSCLC
HS 578T breast = system: HS 578T breast
HT29 colon = system: HT29 colon
IGROV1 ovarian = system: IGROV1 ovarian
K-562 leukemia = system: K-562 leukemia
KM12 colon = system: KM12 colon
LOX IMVI melanoma = system: LOX IMVI melanoma
M14 melanoma = system: M14 melanoma
MALME-3M melanoma = system: MALME-3M melanoma
MCF7 breast = system: MCF7 breast
MDA-MB-435 = system: MDA-MB-435
MDA-MB-468 breast = system: MDA-MB-468 breast
MOLT-4 leukemia = system: MOLT-4 leukemia
NCI-H226 lung = system: NCI-H226 lung
NCI-H23 lung = system: NCI-H23 lung
NCI-H460 lung = system: NCI-H460 lung
NCI-H522 lung = system: NCI-H522 lung
NCI/ADR-RES ovarian = system: NCI/ADR-RES ovarian
OVCAR-3 ovarian = system: OVCAR-3 ovarian
OVCAR-4 ovarian = system: OVCAR-4 ovarian
OVCAR-5 ovarian = system: OVCAR-5 ovarian
OVCAR-8 ovarian = system: OVCAR-8 ovarian
PC-3 prostate = system: PC-3 prostate
RPMI-8226 leukemia = system: RPMI-8226 leukemia
RXF 393 renal = system: RXF 393 renal
SF-268 CNS = system: SF-268 CNS
SF-295 CNS = system: SF-295 CNS
SF-539 CNS = system: SF-539 CNS
SK-MEL-2 melanoma = system: SK-MEL-2 melanoma
SK-MEL-5 melanoma = system: SK-MEL-5 melanoma
SK-OV-3 ovarian = system: SK-OV-3 ovarian
SN12C renal = system: SN12C renal
SNB-19 CNS = system: SNB-19 CNS
SNB-75 CNS = system: SNB-75 CNS
SW-620 colon = system: SW-620 colon
T-47D breast = system: T-47D breast
TK-10 renal = system: TK-10 renal
U251 CNS = system: U251 CNS
UACC-257 melanoma = system: UACC-257 melanoma
UACC-62 melanoma = system: UACC-62 melanoma

Clc1ccc(/C=N/Nc2ncnc3sc4c(c23)CCN(Cc2ccccc2)C4)cc1
14.8 µM: TGI (786-0 renal)
10.4 µM: TGI (HCT-116 colon)
7.41 µM: TGI (NCI-H226 lung)
31.9 µM: TGI (SW-620 colon)
12.9 µM: TGI (COLO 205 colon)
42.7 µM: TGI (SK-MEL-2 melanoma)
18.2 µM: TGI (SF-539 CNS)
84.9 µM: TGI (RPMI-8226 leukemia)
4.88 µM: TGI (NCI-H460 lung)
78.4 µM: TGI (SK-OV-3 ovarian)
3.99 µM: TGI (OVCAR-8 ovarian)
41.9 µM: TGI (TK-10 renal)
9.74 µM: TGI (LOX IMVI melanoma)
34.5 µM: TGI (MOLT-4 leukemia)
13.7 µM: TGI (HT29 colon)
25.5 µM: TGI (CCRF-CEM leukemia)
32.5 µM: TGI (PC-3 prostate)
6.7 µM: TGI (HOP-92 NSCLC)
41.2 µM: TGI (SNB-75 CNS)
16.6 µM: TGI (U251 CNS)
76.9 µM: TGI (UACC-257 melanoma)
15 µM: TGI (MCF7 breast)
26.6 µM: TGI (RXF 393 renal)
25.2 µM: TGI (HCT-15 colon) | TGI (HOP-62 NSCLC)
59.2 µM: TGI (A498 renal)
7.66 µM: TGI (M14 melanoma)
5.84 µM: TGI (NCI/ADR-RES ovarian)
15.8 µM: TGI (MDA-MB-468 breast)
5.33 µM: TGI (OVCAR-3 ovarian)
43 µM: TGI (HL-60(TB) leukemia)
21.6 µM: TGI (SF-295 CNS)
> 100 µM: TGI (A549 NSCLC) | TGI (ACHN renal) | TGI (BT-549 breast) | TGI (CAKI-1 renal) | TGI (DU-145 prostate) | TGI (EKVX NSCLC) | TGI (HCC-2998 colon) | TGI (HS 578T breast) | TGI (IGROV1 ovarian) | TGI (KM12 colon) | TGI (MALME-3M melanoma) | TGI (MDA-MB-435) | TGI (NCI-H23 lung) | TGI (NCI-H522 lung) | TGI (OVCAR-5 ovarian) | TGI (SF-268 CNS) | TGI (SK-MEL-5 melanoma) | TGI (SN12C renal) | TGI (SNB-19 CNS) | TGI (T-47D breast) | TGI (UACC-62 melanoma)
7.52 µM: TGI (OVCAR-4 ovarian)
inactive: GI50 (786-0 renal) 3.85 µM | GI50 (A498 renal) 25.8 µM | GI50 (A549 NSCLC) 12.1 µM | GI50 (ACHN renal) 15.8 µM | GI50 (BT-549 breast) 23.4 µM | GI50 (CAKI-1 renal) > 100 µM | GI50 (CCRF-CEM leukemia) 3.51 µM | GI50 (COLO 205 colon) 3.52 µM | GI50 (DU-145 prostate) 5.67 µM | GI50 (EKVX NSCLC) 65.6 µM | GI50 (HCC-2998 colon) 10.7 µM | GI50 (HCT-116 colon) 3.04 µM | GI50 (HCT-15 colon) 4.04 µM | GI50 (HL-60(TB) leukemia) 5.59 µM | GI50 (HOP-62 NSCLC) 4.8 µM | GI50 (HOP-92 NSCLC) 2.4 µM | GI50 (HS 578T breast) 6.33 µM | GI50 (HT29 colon) 3.37 µM | GI50 (IGROV1 ovarian) 20.1 µM | GI50 (K-562 leukemia) 4.16 µM | GI50 (KM12 colon) 11.9 µM | GI50 (LOX IMVI melanoma) 2.9 µM | GI50 (M14 melanoma) 2.65 µM | GI50 (MALME-3M melanoma) 4.96 µM | GI50 (MCF7 breast) 2.98 µM | GI50 (MDA-MB-435) 7.26 µM | GI50 (MDA-MB-468 breast) 3.72 µM | GI50 (MOLT-4 leukemia) 4.53 µM | GI50 (NCI-H226 lung) 2.31 µM | GI50 (NCI-H23 lung) 12 µM | GI50 (NCI-H460 lung) 2.26 µM | GI50 (NCI-H522 lung) 23.9 µM | GI50 (NCI/ADR-RES ovarian) 2.34 µM | GI50 (OVCAR-3 ovarian) 2.49 µM | GI50 (OVCAR-4 ovarian) 2.76 µM | GI50 (OVCAR-5 ovarian) 20.9 µM | GI50 (OVCAR-8 ovarian) 1.95 µM | GI50 (PC-3 prostate) 3.63 µM | GI50 (RPMI-8226 leukemia) 5.39 µM | GI50 (RXF 393 renal) 10.2 µM | GI50 (SF-268 CNS) 8.38 µM | GI50 (SF-295 CNS) 4.19 µM | GI50 (SF-539 CNS) 4.1 µM | GI50 (SK-MEL-2 melanoma) 16 µM | GI50 (SK-MEL-5 melanoma) 18.6 µM | GI50 (SK-OV-3 ovarian) 20.8 µM | GI50 (SN12C renal) 9.09 µM | GI50 (SNB-19 CNS) 6.06 µM | GI50 (SNB-75 CNS) 3.21 µM | GI50 (SW-620 colon) 3.85 µM | GI50 (T-47D breast) 22.5 µM | GI50 (TK-10 renal) 20.8 µM | GI50 (U251 CNS) 4 µM | GI50 (UACC-257 melanoma) 9.6 µM | GI50 (UACC-62 melanoma) 30.5 µM
54.9 µM: TGI (K-562 leukemia)
